{
  "source": "paper PMC3527569",
  "about": "“Anti-Inflammatory and Vasoprotective Activity of a Retroviral-Derived Peptide, Homologous to Human Endogenous Retroviruses: Endothelial Cell Effects” (PLoS ONE, 2012)",
  "key": {"[1]": {"system": "GM-CSF", "assay": "LPS-induced GM-CSF release by human PBMC (sandwich ELISA)", "type": "cell-based", "conditions": "18-24 h, peptide 10 nM-100 µM in triplicate, IC50 estimated from graph", "procedure": "(§1) Cytokine Assays: One-hundred µL of PBMC (2 x 10^6/ml in Complete Medium) were added to each well of a flat-bottom, 96-well tissue culture plate. To each well was then added 50 µL of media or peptide (4X desired final concentration; in Complete Medium) and 50 µL of lipopolysaccharide (LPS; S. typhosa; Sigma, St. Louis, MO; 400 ng/ml Complete Medium). Each peptide was tested in triplicate at 5 log10 concentrations ranging from 100 µM to 10 nM. Plates were incubate 18-24 h at 37°C in 5% humidified CO2. Plates were then centrifuged and 100 µL of supernatant removed from each well and stored frozen at -80°C until assayed. Cytokines (TNF-α, IL-1β, IL-6, GM-CSF) were measured by sandwich ELISA assays (R & D Systems; Minneapolis, MN) using the manufacturer’s instructions. The released cytokine concentration was determined from a standard curve using recombinant cytokine provided with each kit."}, "[2]": {"system": "IL-1β", "assay": "LPS-induced IL-1β release by human PBMC (sandwich ELISA)", "type": "cell-based", "conditions": "18-24 h, peptide 10 nM-100 µM in triplicate, IC50 estimated from graph", "procedure": "as §1"}, "[3]": {"system": "HUVEC", "assay": "Staurosporine-induced apoptosis in HUVEC (Cell Death Detection ELISA)", "type": "cell-based, human", "conditions": "for protection against staurosporine-induced apoptosis: 50 µM peptide 3 h before staurosporine (500 nM), measured 18 h after staurosporine (Figure 11B)", "procedure": "Apoptosis was measured in HUVEC using the Cell Death Detection ELISA^PLUS kit (Roche Diagnostics; Indianapolis, IN) according to the manufacturer's instructions. This assay is based on a quantitative sandwich-enzyme-immunoassay using mouse monoclonal antibodies directed against both DNA and histones, respectively. It allows the specific determination of mono- and oligonucleosomes in the cytoplasmic fraction of cell lysates (apoptosis) and in the supernatant of dying cells (necrosis). The apoptotic index (AI) was calculated as\nwhere treatment refers to use of a known apoptosis- or necrosis-inducing agent (staurosporine, TNF-α)."}, "[4]": {"system": "IL-6", "assay": "LPS-induced IL-6 release by human PBMC (sandwich ELISA)", "type": "cell-based", "conditions": "18-24 h, peptide 10 nM-100 µM in triplicate, IC50 estimated from graph", "procedure": "as §1"}, "[5]": {"system": "PAF", "assay": "Zymosan-induced PAF release by adherent human PBMC", "type": "cell-based", "conditions": "1 h peptide then Zymosan 90 min, IC50 estimated from graph", "procedure": "Platelet Activating Factor (PAF) and Leukotriene B4 (LTB4) Assays: PBMC were prepared as described above and adjusted to 3.3 x 10^6 cells/ml in RPMI-1640 medium containing 5 mg/ml HSA (Sigma, St. Louis, MO). To each well of a 48-well tissue culture plate was added 0.3 ml of cell suspension. The plate was incubated for 2 h at 37°C and 5% CO2 to allow cells to adhere. The wells were then washed 3X with HHBSS (Hank’s Balanced Salt Solution with 5 mg/ml HSA) at room temperature (RT). One-hundred seventy-five µL of HHBSS or test material in HHBSS was then added to each well and the plates incubated for 1 h at 37°C and 5% CO2. Samples were set up in quadruplicate. To each of duplicate wells for each sample was then added 175 µL of HHBSS or HHBSS containing 600 µg/ml of Zymosan (Sigma, St. Louis, MO). The plates were then incubated for 90 min at 37°C and 5% CO2. The plates were centrifuged and supernatants removed for quantitation of PAF or LTB4 according to the kit manufacturer’s (Amersham Pharmacia; Piscataway, NJ) instructions. The released PAF or LTB4 concentration was determined from a standard curve using standards provided with each kit."}, "[6]": {"system": "human blood monocytes", "assay": "[125I]-MN20054 binding/uptake by human blood monocytes", "conditions": "100-fold molar excess unlabeled peptide, 60 min, 37°C, PBS 0.5% BSA pH 7.5, triplicate, gamma counting (Figure 6A)", "procedure": "(Perkin Elmer; Boston, MA) using the chloramine-T method. Human blood monocytes (purified by adherence to plastic; 10^6/0.2 ml in PBS with 0.5% BSA, pH 7.5 in 12×75 mm polypropylene tubes) were incubated in triplicate at 37°C for 60 min with 40 pmol [^125I]-MN20054 (∼20 Ci/mmol) in the presence or absence of a 100-fold molar excess of unlabeled peptide. Tubes were shaken gently during the incubation. The contents of each tube were layered onto a layer of 0.8 ml of 10% sucrose in polypropylene Eppendorf tubes and the tubes centrifuged for 5 min at 8,000×g to separate cell-associated from free ligand. The tubes were then snap-frozen in a dry-ice/acetone bath and the bottom of the tube containing the cell pellet cut off and then counted in a gamma-scintillation spectrophotometer. In studies to determine how much of the uptake was due to endocytosis, binding/uptake was performed as described above with the exception that half of the monocytes were pretreated for 30 min at 37°C with cytochalasin B (10 µg/ml; Sigma; St. Louis, MO)."}, "[7]": {"system": "Adhesion", "assay": "Monocyte adhesion to endothelial cells (HUVEC)", "type": "cell-based, human", "conditions": "calcein-labelled PBMC on HUVEC, TNF-α stimulated; peptide 10 nM-100 µM", "procedure": "Monocyte Adhesion to Endothelial Cells: To each well of a 96-well tissue culture plate was added 100 µL of HUVEC at 2 x 10^4 cells/ml. The plates were then incubated 48 h at 37°C and 5% CO2. PBMC, prepared as above, were washed once in serum-free RPMI-1640 medium. Calcein-AM (Sigma; St. Louis, MO) was added to a final concentration of 10 µg/ml, the cells incubated 30 min at 37°C, and then washed once with serum-free RPMI-1640. The cells were then washed an additional time with Complete Medium and resuspended to a concentration of 3 x 10^6/ml in Complete Medium. For each concentration of compound to be tested, 200 µL of labeled PBMC was incubated with 200 µL of test compound (2X desired final concentration) in polypropylene tubes. Similarly, for each concentration of compound to be tested, 50 µL of medium was removed from a well of the plated HUVEC and 50 µL of medium containing the test compound (2X desired final concentration) was added. Both tubes and plates were incubated 1 h at 37°C in 5% CO2. All peptides were tested at log10 concentrations of 10 nM to 100 µM. […] The plate was then read on a fluorescent spectrophotometer with filter settings of λ = 485exc/530emi. […] The plate was blotted to remove any media and read again on the fluorescent spectrophotometer. Percent of Maximum Adhesion (% Max. Adh.) was calculated as: […]"}},
  "note": "Where a SMILES comes first, the peptide text is derived from it. Bridges are numbered along the chain shown (N, C = ends). Roman numbers before positions name the chains, in order.",
  "data": [
    {"compound": "H-LGGEKLFLLDGRNQLC-OH (disulfide (positions not given here)) [MN20050]", "values": [
      {"measurement": "IC50", "setting": "[1]", "value": "> 100", "unit": "µM"},
      {"measurement": "IC50", "setting": "[2]", "value": "> 100", "unit": "µM"},
      {"measurement": "protection against staurosporine-induced apoptosis", "setting": "[3]", "value": "no protective effective"},
      {"measurement": "IC50", "setting": "[4]", "value": "> 100", "unit": "µM"},
      {"measurement": "IC50", "setting": "[5]", "value": "> 100", "unit": "µM"},
      {"measurement": "inhibition of binding or uptake of [125I]-MN20054 by monocytes", "setting": "[6]", "value": "< 10", "unit": "%"},
      {"measurement": "IC50", "setting": "[7]", "value": "> 100", "unit": "µM"}
    ]},
    {"compound": "CC(C)C[C@H](NC(=O)CNC(=O)CNC(=O)[C@H](CCC(=O)O)NC(=O)[C@H](CCCCN)NC(=O)[C@H](CC(C)C)NC(=O)[C@H](Cc1ccccc1)NC(=O)[C@H](CC(C)C)NC(=O)[C@H](CC(C)C)NC(=O)[C@H](CC(=O)O)NC(=O)[C@H](CC(C)C)NC(=O)CNC(=O)[C@H](CCCNC(=N)N)NC(=O)[C@H](CCCNC(=N)N)NC(=O)[C@H](CC(N)=O)NC(=O)[C@H](CCC(N)=O)NC(=O)[C@@H](N)CC(C)C)C(=O)N[C@@H](CSSC[C@H](NC(=O)[C@H](CC(C)C)NC(=O)CNC(=O)CNC(=O)[C@H](CCC(=O)O)NC(=O)[C@H](CCCCN)NC(=O)[C@H](CC(C)C)NC(=O)[C@H](Cc1ccccc1)NC(=O)[C@H](CC(C)C)NC(=O)[C@H](CC(C)C)NC(=O)[C@H](CC(=O)O)NC(=O)[C@H](CC(C)C)NC(=O)CNC(=O)[C@H](CCCNC(=N)N)NC(=O)[C@H](CCCNC(=N)N)NC(=O)[C@H](CC(N)=O)NC(=O)[C@H](CCC(N)=O)NC(=O)[C@@H](N)CC(C)C)C(=O)O)C(=O)O", "note": "[MN10021] (I: H-LQNRRGLDLLFLKEGGLC-OH / II: H-LQNRRGLDLLFLKEGGLC-OH; disulfide I:18-II:18)", "values": [
      {"measurement": "IC50", "setting": "[1]", "value": 8, "unit": "µM"},
      {"measurement": "IC50", "setting": "[2]", "value": 17, "unit": "µM"},
      {"measurement": "protection against staurosporine-induced apoptosis", "setting": "[3]", "value": "significant protection"},
      {"measurement": "effect of L-NAME pretreatment on protective effect against staurosporine-induced apoptosis", "setting": "[3]; 2 mM L-NAME 5 h, then 50 µM peptide 3 h, staurosporine 500 nM ON (Figure 12)", "value": "no effect"},
      {"measurement": "maximal protection against staurosporine-induced apoptosis", "setting": "[3]; peptide added 3 h before staurosporine, up to 50 µM peptide, quadruplicate wells (Figure 10A, 10C)", "value": "~60", "unit": "%"},
      {"measurement": "IC50", "setting": "[4]", "value": "> 100", "unit": "µM"},
      {"measurement": "IC50", "setting": "[5]", "value": 12.5, "unit": "µM"},
      {"measurement": "inhibition of binding or uptake of [125I]-MN20054 by monocytes", "setting": "[6]", "value": "~65", "unit": "%"},
      {"measurement": "IC50", "setting": "[7]", "value": "> 100", "unit": "µM"}
    ]}
  ]
}
